Assay [1] deals with 1G4 CTL clone with peptide-pulsed T2 target cells. As to the kind of experiment: Live cell video microscopy of CTL lytic granule polarization. It is filed as cell-based. Particulars: T2 cells pulsed with 1 μM peptide.
Assay [2] shares this test system. It is filed as cell-based. The conditions noted are these: 30 min at 37°C.
The subject of assay [3] is Jurkat cells transfected with A2K^b cDNA. Nature of the assay: In vitro killing assay with CTL from ESO 9V-immunized mice. In kind it is cell-based.
Assay [4] relates to splenocytes from ESO 9V- or ESO 9C-immunized A2K^b mice. As to the kind of experiment: Ex-vivo IFN-γ ELISPOT assay. In kind it is cell-based, mouse. Particulars: reducing agent TCEP, unpublished data.
In assay [5] the target is HLA-A2 loaded with the NY-ESO-1 157-165 analogue peptide …. Nature of the assay: SPR. In general terms: SPR reads the build-up and loss of mass on a sensor chip optically.
Assay [6] has as its target HLA-A2 loaded with the wild-type NY-ESO-1 157-165 peptide …. As to the kind of experiment: SPR.

Regarding SLLMWITQC [ESO 9C], the “rate of lytic granule polarization” value in assay [1] was “lytic granule polarization is slow”. The “time from initial contact to granule polarization at the synapse” value in assay [1] (1 h at 37°C, single CTL followed) is listed as at most 17 min. Further, the “time without polarization of lytic granules toward either target” value in assay [1] (second CTL (red arrow)) was above 22 min. For the same substance, in assay [2], the granule polarization result is on record as “polarization was poor”. The “lysis of peptide-loaded target cells by CTL from ESO 9V-immunized mice” value in assay [3] was “capable of lysing target cells loaded with wild-type ESO 9C peptide”. In addition, in assay [4], the “effect of TCEP on IFN-γ responses to ESO 9C peptide” value is “responses were enhanced in the presence of the reducing agent TCEP”.
On to “soluble 1G4 TCR (NY-ESO-1 157-165-specific TCR from the 1G4 CTL clone)”, for which the figures for the Kd in assay [5] and in assay [6] were 5 µM and 13.3 µM, respectively.

For the origin of these results see PMC2213140 (The Journal of Experimental Medicine, 2005).
